Reference: patent publication US9846167B2 (priority 2013, dated 2017)
Where two headings read alike, the source gives them in different places.

Key:
[1] = format: binding; settings: hydroxyapatite nanoparticles in PBS, single stain, FIG. 1
Protocol: Samples were analyzed using the Apogee A50 Nanoscale Flow Cytometer.
An isotype negative control was prepared for each Alendronate compound. […] (AL-Cy5) was Notdronate-Cy5 (NT-Cy5).

[2] = single stain

| Substance | probe-positive events (AL-positive / NT-positive background) [1] | probe-positive events, probe versus its isotype negative control ([2]; MGUS patient plasma, FIG. 4) | probe-positive events, probe versus its isotype negative control ([2]; Multiple Myeloma patient plasma, FIG. 8) | probe-positive events ([2]; healthy volunteer plasma, FIG. 2) | probe-positive events, probe versus its isotype negative control ([2]; plasma of another MGUS patient, FIG. 6) |
| --- | --- | --- | --- | --- | --- |
| FITC alendronate [AL-FITC] | significantly higher AL-positive events |  |  |  |  |
| Sulfo-Cy5 alendronate [AL-Cy5] | significantly higher AL-positive events |  |  |  |  |
| fluorescein-4-butanol [NT-FITC] | minimal | higher count of events | higher count of events | significantly higher | higher count of events |
